Source: PubChem BioAssay AID2060486 (Molecular Pharmacology Branch, DTP, NCI, 2025)

System: IGROV1 complex spheroids (HUVEC, MSC), viability % test/control
Assay: Anticancer human tumor IGROV1 cell line growth inhibition [GQUAD];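 note: spheroids exposed to compounds for 7 days before readout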;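 for viability, T/C: 100% = DMSO vehicle control viability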
Settings: for IC50: curve of first compound; for viability, T/C: stronger effect = lower value
Outline: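 Viability of tumor cells grown as complex spheroids with endothelial and stromal cells, exposed to drug combinations. Top concentration at or near clinical Cmax (else 10 microM), diluted in half-log increments.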

[1] = second compound 0.0316 µM, first compound 0.0316 µM
[2] = second compound 0.0316 µM, first compound 0.316 µM
[3] = second compound 0.1 µM, first compound 0.0316 µM
[4] = second compound 0.1 µM, first compound 0.316 µM
[5] = second compound 0.316 µM, first compound 0.0316 µM
[6] = second compound 0.316 µM, first compound 0.316 µM
[7] = second compound 1 µM, first compound 0.0316 µM
[8] = second compound 1 µM, first compound 0.316 µM
[9] = second compound 3.16 µM, first compound 0.0316 µM
[10] = second compound 3.16 µM, first compound 0.316 µM
[11] = second compound 10 µM, first compound 0.0316 µM
[12] = second compound 10 µM, first compound 0.316 µM
[13] = second compound 0.0316 µM, first compound 0.1 µM
[14] = second compound 0.0316 µM, first compound 1 µM
[15] = second compound 0.0316 µM, first compound 3.16 µM
[16] = second compound 0.0316 µM, first compound 10 µM
[17] = second compound 0.1 µM, first compound 0.1 µM
[18] = second compound 0.1 µM, first compound 1 µM
[19] = second compound 0.1 µM, first compound 3.16 µM
[20] = second compound 0.1 µM, first compound 10 µM
[21] = second compound 0.316 µM, first compound 0.1 µM
[22] = second compound 0.316 µM, first compound 1 µM
[23] = second compound 0.316 µM, first compound 3.16 µM
[24] = second compound 0.316 µM, first compound 10 µM
[25] = second compound 1 µM, first compound 0.1 µM
[26] = second compound 1 µM, first compound 1 µM
[27] = second compound 1 µM, first compound 3.16 µM
[28] = second compound 1 µM, first compound 10 µM
[29] = second compound 3.16 µM, first compound 0.1 µM
[30] = second compound 3.16 µM, first compound 1 µM
[31] = second compound 3.16 µM, first compound 3.16 µM
[32] = second compound 3.16 µM, first compound 10 µM
[33] = second compound 10 µM, first compound 0.1 µM
[34] = second compound 10 µM, first compound 1 µM
[35] = second compound 10 µM, first compound 3.16 µM
[36] = second compound 10 µM, first compound 10 µM

SMILES: CC[C@@]1(O)C(=O)OCc2c1cc1n(c2=O)Cc2cc3c(CN(C)C)c(O)ccc3nc2-1 + Cc1[nH]c2ccc(F)cc2c1-c1nc2c3cccnc3c3ncccc3c2[nH]1
- IC50 (second compound 0.0316 µM): 26.3 nM
- IC50 (second compound 0.1 µM): 23.1 nM
- IC50 (second compound 0.316 µM): 9.14 nM
- IC50 (second compound 1 µM): < 0.999 nM
- IC50 (second compound 3.16 µM): < 0.999 nM
- IC50 (second compound 10 µM): < 0.999 nM
- viability, T/C (second compound 0.0316 µM, first compound 0.000999 µM): 99.8%
- viability, T/C (second compound 0.0316 µM, first compound 0.00316 µM): 73.2%
- viability, T/C (second compound 0.0316 µM, first compound 0.00999 µM): 92.3%
- viability, T/C [1]: 42.7%
- viability, T/C (second compound 0.0316 µM, first compound 0.0999 µM): 10.9%
- viability, T/C [2]: 10.8%
- viability, T/C (second compound 0.1 µM, first compound 0.000999 µM): 96.9%
- viability, T/C (second compound 0.1 µM, first compound 0.00316 µM): 77.7%
- viability, T/C (second compound 0.1 µM, first compound 0.00999 µM): 94.9%
- viability, T/C [3]: 35%
- viability, T/C (second compound 0.1 µM, first compound 0.0999 µM): 10.7%
- viability, T/C [4]: 11.1%
- viability, T/C (second compound 0.316 µM, first compound 0.000999 µM): 93.1%
- viability, T/C (second compound 0.316 µM, first compound 0.00316 µM): 58.5%
- viability, T/C (second compound 0.316 µM, first compound 0.00999 µM): 56.9%
- viability, T/C [5]: 34.6%
- viability, T/C (second compound 0.316 µM, first compound 0.0999 µM): 9.45%
- viability, T/C [6]: 10.2%
- viability, T/C (second compound 1 µM, first compound 0.000999 µM): 4.53%
- viability, T/C (second compound 1 µM, first compound 0.00316 µM): 5.2%
- viability, T/C (second compound 1 µM, first compound 0.00999 µM): 3.92%
- viability, T/C [7]: 4.65%
- viability, T/C (second compound 1 µM, first compound 0.0999 µM): 5.01%
- viability, T/C [8]: 4.15%
- viability, T/C (second compound 3.16 µM, first compound 0.000999 µM): 4.32%
- viability, T/C (second compound 3.16 µM, first compound 0.00316 µM): 4.59%
- viability, T/C (second compound 3.16 µM, first compound 0.00999 µM): 4.67%
- viability, T/C [9]: 4.52%
- viability, T/C (second compound 3.16 µM, first compound 0.0999 µM): 4.31%
- viability, T/C [10]: 2.77%
- viability, T/C (second compound 10 µM, first compound 0.000999 µM): 4.73%
- viability, T/C (second compound 10 µM, first compound 0.00316 µM): 3.46%
- viability, T/C (second compound 10 µM, first compound 0.00999 µM): 4.25%
- viability, T/C [11]: 4.75%
- viability, T/C (second compound 10 µM, first compound 0.0999 µM): 4.66%
- viability, T/C [12]: 3.29%

SMILES: CC1COCCN1c1cc(-c2ccnn2C)c2ccnc(-c3ccn[nH]3)c2n1 (stereo unspecified) + Cc1cnc(CNC(=O)c2c(=O)c3ccc(N4CCCN(C)CC4)nc3n3c2sc2ccccc23)cn1
- IC50 (second compound 0.0316 µM): < 31.6 nM
- IC50 (second compound 0.1 µM): < 31.6 nM
- IC50 (second compound 0.316 µM): < 31.6 nM
- IC50 (second compound 1 µM): < 31.6 nM
- IC50 (second compound 3.16 µM): < 31.6 nM
- IC50 (second compound 10 µM): < 31.6 nM
- viability, T/C [1]: 16.8%
- viability, T/C [13]: 9.68%
- viability, T/C [2]: 7.59%
- viability, T/C [14]: 5.06%
- viability, T/C [15]: 4.01%
- viability, T/C [16]: 2.97%
- viability, T/C [3]: 10.3%
- viability, T/C [17]: 7.36%
- viability, T/C [4]: 6.21%
- viability, T/C [18]: 5.27%
- viability, T/C [19]: 3.92%
- viability, T/C [20]: 4.13%
- viability, T/C [5]: 9%
- viability, T/C [21]: 7.55%
- viability, T/C [6]: 6.04%
- viability, T/C [22]: 5.16%
- viability, T/C [23]: 4.14%
- viability, T/C [24]: 3.5%
- viability, T/C [7]: 8.34%
- viability, T/C [25]: 6.08%
- viability, T/C [8]: 5.92%
- viability, T/C [26]: 5.14%
- viability, T/C [27]: 3.89%
- viability, T/C [28]: 3%
- viability, T/C [9]: 7.12%
- viability, T/C [29]: 7.74%
- viability, T/C [10]: 7.15%
- viability, T/C [30]: 5.94%
- viability, T/C [31]: 3.88%
- viability, T/C [32]: 2.53%
- viability, T/C [11]: 6.76%
- viability, T/C [33]: 5.78%
- viability, T/C [12]: 7.42%
- viability, T/C [34]: 3.84%
- viability, T/C [35]: 4.68%
- viability, T/C [36]: 2.74%

SMILES: CC1COCCN1c1cc(-c2ccnn2C)c2ccnc(-c3ccn[nH]3)c2n1 (stereo unspecified) + CN(C)c1ccc(Nc2c3ccc(NC(=O)CCN4CCCC4)cc3nc3cc(NC(=O)CCN4CCCC4)ccc23)cc1
- IC50 (second compound 0.0316 µM): 50.7 nM
- IC50 (second compound 0.1 µM): 49.6 nM
- IC50 (second compound 0.316 µM): 37.1 nM
- IC50 (second compound 1 µM): 43 nM
- IC50 (second compound 3.16 µM): < 31.6 nM
- IC50 (second compound 10 µM): < 31.6 nM
- viability, T/C [1]: 66.2%
- viability, T/C [13]: 26.3%
- viability, T/C [2]: 12.3%
- viability, T/C [14]: 7.64%
- viability, T/C [15]: 4.82%
- viability, T/C [16]: 3.77%
- viability, T/C [3]: 66.3%
- viability, T/C [17]: 24.2%
- viability, T/C [4]: 11.8%
- viability, T/C [18]: 7.54%
- viability, T/C [19]: 5.16%
- viability, T/C [20]: 3.61%
- viability, T/C [5]: 54.9%
- viability, T/C [21]: 21.5%
- viability, T/C [6]: 9.35%
- viability, T/C [22]: 6.62%
- viability, T/C [23]: 5.67%
- viability, T/C [24]: 3.51%
- viability, T/C [7]: 57.8%
- viability, T/C [25]: 28.5%
- viability, T/C [8]: 11.7%
- viability, T/C [26]: 7.28%
- viability, T/C [27]: 5.79%
- viability, T/C [28]: 3.85%
- viability, T/C [9]: 44%
- viability, T/C [29]: 18.2%
- viability, T/C [10]: 11.2%
- viability, T/C [30]: 7.75%
- viability, T/C [31]: 4.98%
- viability, T/C [32]: 3.18%
- viability, T/C [11]: 20.6%
- viability, T/C [33]: 10.5%
- viability, T/C [12]: 9.22%
- viability, T/C [34]: 5.87%
- viability, T/C [35]: 5.04%
- viability, T/C [36]: 3.72%
